Measurements published in US4118583A, “Mixed esters of polyols” (Laboratories om Societe Anonyme, priority 1976, dated 1978).
Like-named read-outs stand apart in the source and are kept apart here.

Assays:
[1] = Acute toxicity on the male rat, p.o. (Table I); details: in vivo, po
Protocol: The acute toxicity of compounds I to VI was determined on the male rat (Table I).

[2] = test system: cholesterol and triglycerides; experiment: Hypocholesterolemiating and hypolipemiating activity in normolipemiating rats (Table III); assay type: in vivo; details: rat, gastric probe, equivalent of 75 mg/kg clofibrate every 12 hours, 10 days; for Triglycerides: untreated 1.13; for Cholesterol: untreated 90.79; for Cholesterol, decrease / Triglycerides, decrease: versus untreated
Protocol: Groups of 10 normolipemiating rats were treated for 10 days, by gastric probe, with the equivalent of 75 mg/kg of clofibrate, administered every 12 hours. After 10 days, 12 hours after the last administration, they were sacrificed and the cholesterol and triglycerides analysed (Table III).

[3] = comparison value given in text, no source or test printed; cited from earlier work

Compound | LD50 [1] [mg/kg] | Triglycerides [2] [mm mole/l.] | Cholesterol [2] [mg/100 ml] | Cholesterol, decrease [2] [%] | Triglycerides, decrease [2] [%] | LD50 [3] [mg/kg]
CC(=O)Oc1ccccc1C(=O)OC1C(OC(=O)c2ccccc2OC(C)=O)C(OC(=O)C(C)(C)Oc2ccc(Cl)cc2)C(OC(=O)C(C)(C)Oc2ccc(Cl)cc2)C(OC(=O)C(C)(C)Oc2ccc(Cl)cc2)C1OC(=O)C(C)(C)Oc1ccc(Cl)cc1 (stereo not drawn) [Compound I, 1,2-di-(acetylsalicyl)-3,4,5,6-tetra-(2-p-chlorophenoxy-2-methylpropionyl)-meso-inositol] | > 5000 | 0.96 | 78.25 | 14 | 15 | –
CC(=O)Oc1ccccc1C(=O)OC(COC(=O)C(C)(C)Oc1ccc(Cl)cc1)COC(=O)C(C)(C)Oc1ccc(Cl)cc1 [Compound II, 1,3-di-(2-p-chlorophenoxy-2-methylpropionyloxy)-2-(acetylsalicyloxy)-propane] | > 7500 | 0.92 | 73.90 | 19 | 19 | –
CC(=O)Oc1ccccc1C(=O)OCC(COC(=O)C(C)(C)Oc1ccc(Cl)cc1)OC(=O)C(C)(C)Oc1ccc(Cl)cc1 (stereo not drawn) [Compound III, 3-(acetylsalicyloxy)-1,2-di-(2-p-chlorophenoxy-2-methylpropionyloxy)-propane] | > 6200 | 0.91 | 75.63 | 17 | 19 | –
CC(=O)Oc1ccccc1C(=O)OCC(COC(=O)C(C)(C)Oc1ccc(Cl)cc1)OC(C)=O (stereo not drawn) [Compound IV, 1-(acetylsalicyloxy)-3-(2-p-chlorophenoxy-2-methylpropionyloxy)-2-acetoxy-propane] | > 5000 | 0.97 | 72.12 | 21 | 14 | –
CC(=O)Oc1ccccc1C(=O)OCCOC(=O)C(C)(C)Oc1ccc(Cl)cc1 [Compound VI, 1-(acetylsalicyloxy)-2-(2-p-chlorophenoxy-2-methylpropionyloxy)-ethane] | > 6000 | 0.83 | 67.34 | 26 | 27 | –
CC(=O)Oc1ccccc1C(=O)OCC(COC(=O)C(C)(C)Oc1ccc(Cl)cc1)OS(=O)(=O)O (stereo not drawn) [Compound V] | > 5000 | 0.89 | 68.38 | 25 | 21 | –
CC(=O)Oc1ccccc1C(=O)O [acetylsalicylic acid] | – | – | – | – | – | 1750
CCOC(=O)C(C)(C)Oc1ccc(Cl)cc1 [clofibrate, reference compound] | – | 0.83 | 65.24 | 28 | 27 | 1200
